In this experiment the target is T1, Alpha-glucosidase (Oryza sativa Japonica Group) (UniProt Q9LGC6).
T1 sequence (whole entry): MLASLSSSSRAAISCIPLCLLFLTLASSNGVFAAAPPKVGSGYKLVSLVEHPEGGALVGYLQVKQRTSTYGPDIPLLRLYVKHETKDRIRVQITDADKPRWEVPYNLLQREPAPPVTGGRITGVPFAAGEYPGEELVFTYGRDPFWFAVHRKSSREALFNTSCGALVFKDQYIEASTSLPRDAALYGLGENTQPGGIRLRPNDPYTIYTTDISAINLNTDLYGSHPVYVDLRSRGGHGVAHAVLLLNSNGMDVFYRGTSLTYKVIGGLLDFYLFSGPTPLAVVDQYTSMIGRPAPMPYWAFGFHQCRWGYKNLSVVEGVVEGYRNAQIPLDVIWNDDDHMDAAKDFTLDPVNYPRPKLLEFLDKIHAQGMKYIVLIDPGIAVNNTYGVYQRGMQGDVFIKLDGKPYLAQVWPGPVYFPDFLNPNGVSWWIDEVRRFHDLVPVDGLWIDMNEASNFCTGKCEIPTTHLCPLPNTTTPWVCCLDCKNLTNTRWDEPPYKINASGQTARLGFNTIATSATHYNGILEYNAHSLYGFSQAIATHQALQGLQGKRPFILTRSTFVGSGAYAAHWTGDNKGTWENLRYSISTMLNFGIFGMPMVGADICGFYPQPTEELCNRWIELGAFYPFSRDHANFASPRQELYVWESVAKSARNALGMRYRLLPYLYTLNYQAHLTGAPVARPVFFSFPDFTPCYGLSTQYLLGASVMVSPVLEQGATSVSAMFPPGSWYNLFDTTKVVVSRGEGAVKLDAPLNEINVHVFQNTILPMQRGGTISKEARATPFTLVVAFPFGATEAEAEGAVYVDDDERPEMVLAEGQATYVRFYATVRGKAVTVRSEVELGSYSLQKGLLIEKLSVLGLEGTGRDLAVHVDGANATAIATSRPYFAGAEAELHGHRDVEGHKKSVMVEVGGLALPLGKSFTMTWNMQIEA
Kind of experiment: Percentage inhibition of Alpha-glucosidase from Rice (maltase) at 1 mM; […].

Active and inactive are the calls of the source. The rule behind the calls is not given here.

For `OC1CNC(CNCC2CCN(Cc3ccccc3)CC2)C1O` (stereo unspecified), the inhibition entry was “inactive”.

Source of the values: ChEMBL document CHEMBL1133958, “Derivatives of (2R,3R,4S)-2-aminomethylpyrrolidine-3,4-diol are selective alpha-mannosidase inhibitors” (Bioorg Med Chem Lett, 2001).
